The subject of test [1] is hSERT S2-binding site mutants (W103azF, Y107azF, W182azF, Y487azF, K490azF). Kind of test: Ultraviolet-induced photocrosslinking of [3H]labelled drug in HEK293T cells. The following applies: 100 nM [3H]drug, 2 h 4 °C, UV 15 min; five S2 azF mutants.
For test [2], the target named is T1, hSERT Y95azF (Homo sapiens, UniProt P31645). The conditions noted are these: 100 nM [3H]drug, 2 h 4 °C, UV 15 min, 50–100 kDa segment.
The target in test [3] is hSERT F335azF (Homo sapiens, UniProt P31645). Nature of the test: [3H]5-HT uptake assay (kinetics and uptake inhibition) in HEK293T cells. The following applies: [3H]5-HT uptake inhibition, F335azF (S1 mutant); mean ± s.e.m.
Test [4] concerns the target T1, hSERT Y95azF. The test is described as above.
The target of test [5] is T2, WT hSERT (Homo sapiens, UniProt P31645). Kind of test: Saturation binding of [3H]vortioxetine / [3H]imipramine to HEK293T membranes expressing hSERT. Also noted: expressed in transfected cells; host or cells: HEK293T. The following applies: [3H]ligand saturation binding.
The target in test [6] is hSERT Y107azF (Homo sapiens, UniProt P31645). Kind of test: [3H]5-HT uptake assay (kinetics and uptake inhibition) in HEK293T cells.
In test [7] the target is T3, SERT WT (Homo sapiens, UniProt P31645). Kind of test: [3H]5-HT saturation uptake in the presence of a fixed concentration of vortioxetine (competitive inhibition). The conditions noted are these: control 4.21 ± 0.45. In kind it is cell-based. Also noted: expressed in transfected cells; host or cells: HEK293T.
In test [8] the target is hSERT I168azF (Homo sapiens, UniProt P31645). Nature of the test: [3H]5-HT uptake assay (kinetics and uptake inhibition) in HEK293T cells.
Test [9] concerns the target T4, hSERT F341azF (Homo sapiens, UniProt P31645). Nature of the test: Ultraviolet-induced photocrosslinking of [3H]labelled drug in HEK293T cells.
Test [10] concerns the target T2, WT hSERT. The test is described as above. The conditions noted are these: 100 nM [3H]drug, 2 h 4 °C, UV 15 min.
The target in test [11] is hSERT K490azF (Homo sapiens, UniProt P31645). Kind of test: [3H]5-HT uptake assay (kinetics and uptake inhibition) in HEK293T cells. The conditions noted are these: [3H]5-HT uptake inhibition, K490azF (S2 mutant); mean ± s.e.m.
Test [12] has as its target T4, hSERT F341azF. The test is described as above. The conditions noted are these: [3H]5-HT uptake inhibition, F341azF (S1 mutant); mean ± s.e.m.
The target of test [13] is hSERT Y175azF (Homo sapiens, UniProt P31645). The description is as above. The following applies: [3H]5-HT uptake inhibition, Y175azF (S1 mutant); mean ± s.e.m.
The target in test [14] is hSERT W103azF (Homo sapiens, UniProt P31645). The description is as above. The conditions noted are these: [3H]5-HT uptake inhibition, W103azF (S2 mutant); mean ± s.e.m.
In test [15] the target is hSERT Y487azF (Homo sapiens, UniProt P31645). The test is described as above. The following applies: [3H]5-HT uptake inhibition, Y487azF (S2 mutant); mean ± s.e.m.
Test [16] addresses hSERT W182azF (Homo sapiens, UniProt P31645). Described as above. The following applies: [3H]5-HT uptake inhibition, W182azF (S2 mutant); mean ± s.e.m.
Test [17] concerns the target T3, SERT WT. The description is as above.

Structures are written as SMILES.

T3 sequence (P31645 whole entry): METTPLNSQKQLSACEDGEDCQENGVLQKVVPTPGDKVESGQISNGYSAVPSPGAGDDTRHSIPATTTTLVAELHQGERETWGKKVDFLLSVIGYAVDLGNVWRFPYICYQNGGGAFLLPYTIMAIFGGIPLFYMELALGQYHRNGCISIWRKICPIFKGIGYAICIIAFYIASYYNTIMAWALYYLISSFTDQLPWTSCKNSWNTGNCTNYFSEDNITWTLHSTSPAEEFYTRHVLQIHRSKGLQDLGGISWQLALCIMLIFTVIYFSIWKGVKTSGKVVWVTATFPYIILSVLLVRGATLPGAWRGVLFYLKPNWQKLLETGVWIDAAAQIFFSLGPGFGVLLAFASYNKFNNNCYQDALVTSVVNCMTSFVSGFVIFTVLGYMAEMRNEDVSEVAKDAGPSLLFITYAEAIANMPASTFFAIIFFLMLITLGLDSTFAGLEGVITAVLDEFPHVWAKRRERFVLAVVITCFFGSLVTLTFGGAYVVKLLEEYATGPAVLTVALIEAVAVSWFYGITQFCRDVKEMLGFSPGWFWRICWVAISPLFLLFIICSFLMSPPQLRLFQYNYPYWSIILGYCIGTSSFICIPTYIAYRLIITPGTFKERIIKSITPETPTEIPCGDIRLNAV
T4 sequence (P31645 whole entry): as above
T1 sequence (P31645 whole entry): as above
T2 sequence (P31645 whole entry): as above
Sequence of hSERT I168azF (P31645 whole entry): as above
Sequence of hSERT Y107azF (P31645 whole entry): as above
Sequence of hSERT Y487azF (P31645 whole entry): as above
Sequence of hSERT F335azF (P31645 whole entry): as above

Turning to `CN(C)CCCN1c2ccccc2CCc2ccccc21` [imipramine], the “ultraviolet-induced crosslinking (radioactivity signal vs non-UV control)” value in test [1] was “did not crosslink”.
Turning to `Cc1ccc(Sc2ccccc2N2CCNCC2)c(C)c1` [vortioxetine], the “ultraviolet-induced crosslinking (radioactivity signal vs non-UV control)” value in [2] is on record as “no signal was detected”; in test [9] (100 nM [3H]drug, 2 h 4 °C, UV 15 min, 50–100 kDa segment), “significant ultraviolet-dependent radioactivity signal was detected”; in [1], “indistinguishable”. The Ki in [3] turned out to be 0.054 ± 0.009 µM; in test [4] ([3H]5-HT uptake inhibition, Y95azF (S1 mutant), mean ± s.e.m.), 1.24 ± 0.125 µM; in [6] ([3H]5-HT uptake inhibition, Y107azF (S2 mutant), mean ± s.e.m.) it was 0.038 ± 0.009 µM; in test [8] ([3H]5-HT uptake inhibition, I168azF (S1 mutant), mean ± s.e.m.), 0.019 ± 0.003 µM; in [11], 0.056 ± 0.02 µM; in test [12], 0.043 ± 0.005 µM. For the same compound, the Ki in test [13] is 0.053 ± 0.006 µM; in test [14], 0.149 ± 0.012 µM; in [15], 0.096 ± 0.016 µM; in test [16], 0.074 ± 0.009 µM; in test [17], 0.202 ± 0.019 µM. In [4] (Y95azF vs WT, Ki in [3H]5-HT uptake inhibition), the “decrease in potency relative to WT hSERT” value is listed as 6 fold. Further, the Kd in test [5] (WT hSERT C-terminally fused to 1D4 tag, mean±s.e.m.) turned out to be 0.0063 ± 0.0007 µM; in test [5] (WT hSERT without 1D4 tag) it was 0.0061 ± 0.0011 µM. In addition, the “increase in potency (more sensitive) relative to WT hSERT” value is on record as 5 fold in test [6] (Y107azF vs WT, Ki in [3H]5-HT uptake inhibition) and 10 fold in [8] (I168azF vs WT, Ki in [3H]5-HT uptake inhibition). In addition, the “Vmax of 5-HT uptake in presence of inhibitor” value was found to be 4.19 ± 0.50 pmol min-1 per well in [7] (0.75 µM vortioxetine) and 4.03 ± 0.36 pmol min-1 per well in test [7] (1 µM vortioxetine). In addition, the “displacement of crosslinking radioactivity signal by unlabelled inhibitor” value in test [9] (100 μM unlabelled inhibitor added before ultraviolet exposure) was “full displacement”. For the same compound, the “ultraviolet-induced crosslinking (radioactivity signal)” value in [10] is recorded as “no radioactivity signal was observed”.

What is called Ki is the dissociation constant of the complex between target and ligand, obtained from inhibition or displacement. Low readings indicate higher affinity, high ones lower affinity. For orientation: Kd means a measure of binding affinity in units of concentration. Higher therefore signals weaker binding.

The record behind these values is publication PMC4838859, “Genetically encoded photocrosslinkers locate the high-affinity binding site of antidepressant drugs in the human serotonin transporter” (Nature Communications, 2016).
